Data taken from ChEMBL document CHEMBL1134172, “Bicyclic nucleoside inhibitors of Varicella-Zoster Virus (VZV): the effect of terminal unsaturation in the side chain” (Bioorg Med Chem Lett, 2001).

Legend:
[1] = tested on: HEL; experiment: Cytotoxic concentration required to inhibit HEL cell growth by 50 %; type: functional; settings: Homo sapiens
[2] = tested on: HEL; experiment: Minimum cytotoxic concentration required to alter microscopically detectable HEL cell morphology; type: functional; settings: Homo sapiens
[3] = tested on: Human alphaherpesvirus 3; experiment: Effective concentration required for reduction of plaque formation of Varicella-Zoster Virus (OKA strain); type: functional, organism-based
[4] = tested on: Human alphaherpesvirus 3; experiment: Effective concentration required for reduction of plaque formation of Varicella-Zoster Virus, (YS strain); type: functional, organism-based
[5] = tested on: Human alphaherpesvirus 3; experiment: Effective concentration required for reduction of plaque formation of thymidine kinase deficient Varicella-Zoster Virus (071 strain); type: functional, organism-based
[6] = tested on: Human alphaherpesvirus 3; experiment: Effective concentration required for reduction of plaque formation of thymidine kinase deficient Varicella-Zoster Virus (YSR strain); type: functional, organism-based

Structure (SMILES) | EC50 [3] | EC50 [4] | EC50 [5] | EC50 [6] | CC50 [1] | MCC [2]
CCCCCCCCCCc1cc2cn([C@H]3C[C@H](O)[C@@H](CO)O3)c(=O)nc2o1 | – | – | – | – | > 50 µM | –
CCCCCCCCc1cc2cn([C@H]3C[C@H](O)[C@@H](CO)O3)c(=O)nc2o1 | – | – | – | – | > 50 µM | –
CCCCCCc1cc2cn([C@H]3C[C@H](O)[C@@H](CO)O3)c(=O)nc2o1 | – | – | – | – | > 200 µM | > 50 µM
CCCCCCCc1cc2cn([C@H]3C[C@H](O)[C@@H](CO)O3)c(=O)nc2o1 | – | – | – | – | > 50 µM | –
C#CCCCCCCc1cc2cn([C@H]3C[C@H](O)[C@@H](CO)O3)c(=O)nc2o1 | 5 µM | 4 µM | > 200 µM | > 200 µM | > 200 µM | > 200 µM
C#CCCCCCc1cc2cn([C@H]3C[C@H](O)[C@@H](CO)O3)c(=O)nc2o1 | 79 µM | 37 µM | > 200 µM | > 200 µM | > 200 µM | > 200 µM
CCCCCc1cc2cn([C@H]3C[C@H](O)[C@@H](CO)O3)c(=O)nc2o1 | – | – | – | – | > 50 µM | –
C#CCCCCc1cc2cn([C@H]3C[C@H](O)[C@@H](CO)O3)c(=O)nc2o1 | 25 µM | 33 µM | > 200 µM | > 200 µM | > 200 µM | > 200 µM
Nc1nc2c(ncn2COCCO)c(=O)[nH]1 [ACYCLOVIR] | – | – | > 4 µM | – | > 200 µM | –

Continued, in another order:

EC50 [3] | EC50 [4] | EC50 [5] | EC50 [6] | Structure (SMILES) | CC50 [1] | MCC [2]
14 µM | 13 µM | > 200 µM | > 200 µM | C=CCCCCc1cc2cn([C@H]3C[C@H](O)[C@@H](CO)O3)c(=O)nc2o1 | > 200 µM | > 200 µM
0.27 µM | 0.06 µM | > 200 µM | > 50 µM | C=CCCCCCCc1cc2cn([C@H]3C[C@H](O)[C@@H](CO)O3)c(=O)nc2o1 | > 200 µM | > 200 µM
> 200 µM | > 200 µM | > 200 µM | > 200 µM | C=CCCCc1cc2cn([C@H]3C[C@H](O)[C@@H](CO)O3)c(=O)nc2o1 | > 200 µM | > 200 µM
0.09 µM | 0.1 µM | > 200 µM | > 200 µM | C=CCCCCCCCCc1cc2cn([C@H]3C[C@H](O)[C@@H](CO)O3)c(=O)nc2o1 | > 200 µM | > 50 µM
8 µM | 10 µM | > 200 µM | > 200 µM | C#CCCCc1cc2cn([C@H]3C[C@H](O)[C@@H](CO)O3)c(=O)nc2o1 | > 200 µM | > 200 µM
